# Reference: patent US12139508B2, “Steroid derivative regulators, method for preparing the same, and uses thereof” (JIANGSU HANSOH PHARMACEUTICAL GROUP CO., LTD., priority 2018, dated 2024)
# Target: GABA-A receptor
# Assay: 35S-TBPS binding assay (GABAA receptor binding ability test)
# Parameters: species or system Sprague-Dawley rat
# Settings: rat cerebral cortex cell membrane, 5 μM GABA, 2 nM 35S-TBPS; read-out: 35S-TBPS bindng test: IC50 on inhibiting the TBPS binding activity
# Description: 1.2 Experimental Procedures 1.2.1 Extraction of Cerebral Cortex Cell Membrane:
# 1. The cerebral cortex of male Sprague-Dawley rat was isolated.
# 2. A pre-chilled 0.32 M sucrose solution (one tablet of protease inhibitor was added per 100 ml) was added to the cerebral cortex (the volume of sucrose solution was 10 times the volume of the cerebral cortex). The mixture was crushed with a 50 mL glass tissue homogenizer in batches and mixed well.
# 3. The mixture was centrifuged at 1500 g, 4° C. for 10 minutes, and the supernatant was collected.
# 4. The mixture was centrifuged at 20000 g, 4° C. for 30 minutes, and the supernatant was discarded.
# 5. The precipitate was resuspended with the pre-chilled phosphate buffer saline (PBS) (one tablet of protease inhibitor was added per 100 ml). An average of 4 ml of PBS was added per rat, and the mixture was mixed well by a glass tissue homogenizer.
# 6. The mixture was centrifuged at 10000 g, 4° C. for 10 minutes, and the supernatant was discarded.
# 7. Steps 5 and 6 were repeated three times.
# 8. Finally, the precipitate was resuspended with 4 volumes of PBS. The resulting solution was dispensed, frozen in liquid nitrogen, and stored at −80° C.
# 9. The protein concentration was measured by the bicinchoninic acid (BCA) method.
# 1.2.2 ^35S-TBPS Binding Assay
# 1. 230 μL of PBS was added to each well of a well plate with 1.1 ml volume.
# 2. 60 μL of the cerebral cortex cell membrane (5 μg/μL) solution was added to each well, and the mixture was mixed well.
# 3. The test compound (3 μL per well) was added, and the plate was incubated at 25° C. for 5 minutes. The DMSO concentration was 1%. The initial compound concentration was 1 μM, and a 3-fold dilution in gradient was carried out to obtain a total of 8 gradients and 2 replicates. 1% DMSO was used as a negative control, and 10 μM P026-2 was used as a positive control.
# 4. GABA was added at a final concentration of 5 μM, and incubated at 25° C. for 5 minutes. 1 mM GABA solution was formulated, and 1.5 μL of the solution was added to each well.
# 5. ^35S-TBPS was added at a final concentration of 2 nM. The concentration of isotope mother solution was 9.7 μM. After dilution with PBS for 100 times, 6 μL of the diluted isotope solution was added to each well.
# 6. The plate was incubated at 4° C. for 20 hours.
# 7. The FilterMate GF/C plate was pre-treated with 0.5% PEI, and incubated at 4° C. for 1 hour.
# 8. The FilterMate GF/C plate was washed with Universal Harvester twice, 50 ml PBS each time.
# 9. The reaction solution was transferred to the GF/C plate, and each well was washed 4 times with 900 μL of PBS.
# 10. The washed GF/C plate was placed at 55° C. and dried for 10 minutes.
# 11. 40 μL of scintillation solution was added to each well, and the CPM value was read with TopCount.
# 1.2.3 Experimental Data Processing Method:
# In the experiment, the CPM (counts per minute) value was read with TopCount. According to the readings of the High control (DMSO) and the Low control ([…] of the positive compound) experimental groups, the […] inhibition was calculated based on the following formula: % Inhibition=100×(CPMHigh control−CPMSample)/(CPMHigh control−CPMLow control)
# The IC50 of the compound was calculated according to the following 4-parameter nonlinear logic formula: Y=Bottom+(Top−Bottom)/(1+10^((Log IC50−X)*Hill Slope)),
# wherein: • X represents the log of compound concentration, • Y represents the 0 Inhibition.
# The effect of the compound of the present invention on the TBPS binding activity was determined by the above test, and the measured IC50 values are shown in Table 1.
row,Compound,IC50 [nM]
1,"C[C@@H]1C[C@H](C(=O)COc2ccc(F)cc2F)[C@@]2(C)CC[C@H]3[C@@H](CC[C@@H]4C[C@](C)(O)CC[C@@H]43)[C@H]12 [Example 64, 2-(2,4-Difluorophenoxy)-1-((3R,5R,8R,9R,10S,13S,14S,15R,17S)-3-hydroxy-3,13,15-trimethylhexadecahydro-1H-cyclopenta[a]phenanthren-17-yl)ethan-1-one]",8.6
2,"C[C@@H]1C[C@H](C(=O)Cn2cc(C#N)c(C3CC3)n2)[C@@]2(C)CC[C@H]3[C@@H](CC[C@@H]4C[C@](C)(O)CC[C@@H]43)[C@H]12 [Example 69, 3-Cyclopropyl-1-(2-((3R,5R,8R,9R,10S,13S,14S,15R,17S)-3-hydroxy-3,13,15-trimethylhexadecahydro-1H-cyclopenta[a]phenanthren-17-yl)-2-oxoethyl)-1H-pyrazole-4-carbo nitrile]",7.6
3,"C[C@@H]1C[C@H](C(=O)Cn2cc(Cl)cn2)[C@@]2(C)CC[C@H]3[C@@H](CC[C@@H]4C[C@](C)(O)CC[C@@H]43)[C@H]12 [Example 91, 2-(4-Chloro-1H-pyrazol-1-yl)-1-((3R,5R,8R,9R,10S,13S,14S,15R,17S)-3-hydroxy-3,13,15-trimethylhexadecahydro-1H-cyclopenta[a]phenanthren-17-yl)ethan-1-one]",9.6
4,"C[C@@]1(O)CC[C@H]2[C@H](CC[C@@H]3[C@@H]2CC[C@@]2(C)[C@H]3[C@@H]3C[C@@H]3[C@@H]2C(=O)Cn2nc3ccc(F)cc3n2)C1 [Example 92, 2-(5-Fluoro-2H-benzo[d][1,2,3]triazol-2-yl)-1-((2R,4aS,4bR,6aS,7S,7aS,8aR,8bR,8cR,10aR)-2-hydroxy-2,6a-dimethyloctadecahydrocyclopropa[4,5]cyclopenta[1,2-a]phenanthren-7-yl)ethan-1-one]",10.8
5,"C[C@@]1(O)CC[C@H]2[C@H](CC[C@@H]3[C@@H]2CC[C@@]2(C)[C@H]3[C@@H]3C[C@@H]3[C@@H]2C(=O)Cn2nnc3cc(F)ccc32)C1 [Example 93A, 2-(5-Fluoro-1H-benzo[d][1,2,3]triazol-1-yl)-1-((2R,4aS,4bR,6aS,7S,7aS,8aR,8bR,8cR,10aR)-2-hydroxy-2,6a-dimethyloctadecahydrocyclopropa[4,5]cyclopenta[1,2-a]phenanthren-7-yl)ethan-1-one]",3
6,"C[C@@]1(O)CC[C@H]2[C@H](CC[C@@H]3[C@@H]2CC[C@@]2(C)[C@H]3[C@@H]3C[C@@H]3[C@@H]2C(=O)Cn2nnc3ccc(F)cc32)C1 [Example 93B, 2-(6-Fluoro-1H-benzo[d][1,2,3]triazol-1-yl)-1-((2R,4aS,4bR,6aS,7S,7aS,8aR,8bR,8cR,10aR)-2-hydroxy-2,6a-dimethyloctadecahydrocyclopropa[4,5]cyclopenta[1,2-a]phenanthren-7-yl)ethan-1-one]",3
7,"Cc1cnn(CC(=O)[C@H]2[C@H]3C[C@H]3[C@H]3[C@@H]4CC[C@@H]5C[C@](C)(O)CC[C@@H]5[C@H]4CC[C@@]32C)c1 [Example 95, 1-((2R,4aS,4bR,6aS,7S,7aS,8aR,8bR,8cR,10aR)-2-Hydroxy-2,6a-dimethyloctadecahydrocyclopropa[4,5]cyclopenta[1,2-a]phenanthren-7-yl)-2-(4-methyl-1H-pyrazol-1-yl)ethan-1-one]",34.1
8,"C[C@@]1(O)CC[C@H]2[C@H](CC[C@@H]3[C@@H]2CC[C@@]2(C)[C@H]3[C@@H]3C[C@@H]3[C@@H]2C(=O)CNc2ccc(F)cc2)C1 [Example 97, 2-((4-Fluorophenyl)amino)-1-((2R,4aS,4bR,6aS,7S,7aS,8aR,8bR,8cR,10aR)-2-hydroxy-2,6a-dimethyloctadecahydrocyclopropa[4,5]cyclopenta[1,2-a]phenanthren-7-yl)ethan-1-one]",30.2
9,"C[C@@]1(O)CC[C@H]2[C@H](CC[C@@H]3[C@@H]2CC[C@@]2(C)[C@H]3[C@@H]3C[C@@H]3[C@@H]2C(=O)Cn2ccnc2)C1 [Example 98, 1-((2R,4aS,4bR,6aS,7S,7aS,8aR,8bR,8cR,10aR)-2-Hydroxy-2,6a-dimethyloctadecahydrocyclopropa[4,5]cyclopenta[1,2-a]phenanthren-7-yl)-2-(1H-imidazol-1-yl)ethan-1-one]",37.8
10,"Cc1nnnn1CC(=O)[C@H]1[C@H]2C[C@H]2[C@H]2[C@@H]3CC[C@@H]4C[C@](C)(O)CC[C@@H]4[C@H]3CC[C@@]21C [Example 101, 1-((2R,4aS,4bR,6aS,7S,7aS,8aR,8bR,8cR,10aR)-2-Hydroxy-2,6a-dimethyloctadecahydrocyclopropa[4,5]cyclopenta[1,2-a]phenanthren-7-yl)-2-(5-methyl-1H-tetrazol-1-yl)ethan-1-one]",11.4
11,"C[C@@]1(O)CC[C@H]2[C@H](CC[C@@H]3[C@@H]2CC[C@@]2(C)[C@H]3[C@@H]3C[C@@H]3[C@@H]2C(=O)Cn2cc(C(=O)N3CCC3)cn2)C1 [Example 102, 2-(4-(Azetidine-1-carbonyl)-1H-pyrazol-1-yl)-1-((2R,4aS,4bR,6aS,7S,7aS,8aR,8bR,8c R,10aR)-2-hydroxy-2,6a-dimethyloctadecahydrocyclopropa[4,5]cyclopenta[1,2-a]phenanthren-7-yl)ethan-1-one]",65
12,"CSc1cnn(CC(=O)[C@H]2[C@H]3C[C@H]3[C@H]3[C@@H]4CC[C@@H]5C[C@](C)(O)CC[C@@H]5[C@H]4CC[C@@]32C)c1 [Example 122, 1-((2R,4aS,4bR,6aS,7S,7aS,8aR,8bR,8cR,10aR)-2-Hydroxy-2,6a-dimethyloctadecahydrocyclopropa[4,5]cyclopenta[1,2-a]phenanthren-7-yl)-2-(4-(methylthio)-1H-pyrazol-1-yl)ethan-1-one]",46
13,"C[C@@]1(O)CC[C@H]2[C@H](CC[C@@H]3[C@@H]2CC[C@@]2(C)[C@H]3[C@@H]3C[C@@H]3[C@@H]2C(=O)COc2ccc(C#N)cc2F)C1 [Example 125, 3-Fluoro-4-(2-((2R,4aS,4bR,6aS,7S,7aS,8aR,8bR,8cR,10aR)-2-hydroxy-2,6a-dimethyloctadecahydrocyclopropa[4,5]cyclopenta[1,2-a]phenanthren-7-yl)-2-oxoethoxy)benzonitrile]",30.7
14,"C[C@@]1(O)CC[C@H]2[C@H](CC[C@@H]3[C@@H]2CC[C@@]2(C)[C@H]3[C@@H]3C[C@@H]3[C@@H]2C(=O)COc2ccc(F)cc2C#N)C1 [Example 126, 5-Fluoro-2-(2-((2R,4aS,4bR,6aS,7S,7aS,8aR,8bR,8cR,10aR)-2-hydroxy-2,6a-dimethyloctadecahydrocyclopropa[4,5]cyclopenta[1,2-a]phenanthren-7-yl)-2-oxoethoxy)benzonitrile]",4.9
15,"C[C@@]1(O)CC[C@H]2[C@H](CC[C@@H]3[C@@H]2CC[C@@]2(C)[C@H]3[C@@H]3C[C@@H]3[C@@H]2C(=O)Cn2nc(C#N)cc2C#N)C1 [Example 127, 1-(2-((2R,4aS,4bR,6aS,7S,7aS,8aR,8bR,8cR,10aR)-2-Hydroxy-2,6a-dimethyloctadecahydrocyclopropa[4,5]cyclopenta[1,2-a]phenanthren-7-yl)-2-oxoethyl)-1H-pyrazole-3,5-dicarbonitrile]",6.1
16,"C[C@@]1(O)CC[C@H]2[C@H](CC[C@@H]3[C@@H]2CC[C@@]2(C)[C@H]3[C@@H]3C[C@@H]3[C@@H]2C(=O)Cn2cc(-c3ncco3)cn2)C1 [Example 128, 1-((2R,4aS,4bR,6aS,7S,7aS,8aR,8bR,8cR,10aR)-2-Hydroxy-2,6a-dimethyloctadecahydrocyclopropa[4,5]cyclopenta[1,2-a]phenanthren-7-yl)-2-(4-(oxazol-2-yl)-1H-pyrazol-1-yl)ethan-1-one]",15.8
